Measurements taken from patent US6288085A, “Piperidine derivatives for treating psychoses” (Akzo Nobel N.V., priority 1996, dated 2001).

Key:
Catalepsy in rats (CATR) = type: in vivo, Male Wistar rats; details: rat; catalepsy assessed at 60 and 120 minutes after drug administration
Description: (§1) Catalepsy in rats: Male Wistar rats (100-125 g, Olac UK) were used for catalepsy experiments. Catalepsy was assessed as described previously (Broekkamp et al, Naunyn Schmiedeberg's Arch. Pharmacol. 338, 191 1988). Briefly, rats were tested in 6 different observation trials in which the animals were placed in abnormal postures and scored positively with one point for maintaining the imposed posture for 10s. The imposed postures were; vertical clinging to a grid, upright standing with a high support for the front paws, extension of hindlegs, placement on back, placement of spatula in the mouth and rotation in a wire mesh cylinder.
(§2) Theoretically a maximum score of 6 can be reached. Catalepsy was assessed at 60 and 120 minutes after drug administration. The data were evaluated by 2 way ANOVAR followed by a Newman Kools post hoc test and ED50 values calculated (Table II).

catalepsy = assay: Catalepsy in rats (CATR); type: in vivo, Male Wistar rats
Description: as §1, §2

[1] = test system: climbing behaviour in mice, induced by apomorphine (dopamine receptors); assay: Apomorphine climbing test (ACT) in mice; type: in vivo; details: Mus musculus, 0.75 mg/kg apomorphine HCl sc after 30 min, scored at 10 and 20 min
Description: Apomorphine Climbing Test In Mice
The ability of dopamine receptor antagonists to inhibit the behavioural effects in rodents caused by dopamine agonists such as apomorphine is a well established criterion for predicting the antipsychotic efficacy of these drugs in man (see e.g. W. C. Bowman and M. J. Rand, Textbook of Pharmacology, 2nd ed., 1980, 15, 6). A particularly relevant test in this respect is the apomorphine climbing test (ACT) which measures the ability of a dopamine antagonist to inhibit the climbing behaviour in mice, induced by the subcutaneous or oral administration of apomorphine. Activity in this test, following systemic and oral administration, has been widely used as a predictor of antipsychotic activity i.e. anti-schizophrenic activity (see e.g. J. T Strupczewski et.al., J. Med. Chem., 1995, 38, 1119). Mice treated with apomorphine HCl tend to adopt a vertical position along the wall of a wire mesh cylinder, standing or climbing. This climbing behaviour is considered to be elicited by apomorphine-mediated stimulation of dopamine receptors. […] Test compounds which modulate this climbing behaviour may have anti-psychotic activity.
The various treatments are randomly distributed over the mice. Each experiment consists of 1+n treatment groups: 1 being a control group of 12 mice receiving apomorphine and vehicle subcutaneously or being a control group of 12 mice receiving apomorphine subcutaneously and vehicle orally; n being (usually 4) compound groups of 12 mice receiving apomorphine and test compound subcutaneously or being compound groups of 12 mice receiving apomorphine subcutaneously and test compound orally.
Experiments are performed in 3 runs of 20 mice each. The mice are marked and weighed, test compound or vehicle is administered subcutaneously and the mice are placed in small Macrolon cages of 17×11×13 cm, 5 mice per cage, or test compound or vehicle is administered orally and the mice are placed in Macrolon cages of 29×11×13 cm, 5 mice per cage. After 30 min 0.75 mg/kg apomorphine HCl is administered subcutaneously in mice treated subcutaneously with vehicle or test compound, or 0.75 mg/kg apomorphine HCl is administered subcutaneously in mice treated orally with vehicle or test compound, and the mice are placed individually in a wire mesh cylinder (diameter 12 cm, height 14 cm).
At 10 min after the treatment with apomorphine the climbing behaviour of each mouse is observed and expressed as a score, according to the following grade: […]
4 paws on the floor score 0
1 or 2 paws holding the wall score 1
3 or 4 paws holding the wall score 2
At 20 min after the treatment with apomorphine the climbing behaviour is observed and scored again. For each treatment group the mean score per mouse is determined. The score of the control group should be at least 1.0; if not, the trial is rejected. The final result per group is expressed as the percentage over the control group.
The results of this test for the present test compounds are denoted in Table I (subcutaneous and oral administration of test compound).

[2] = po administration of test compound
[3] = sc administration of test compound

Row | Compound | ED50 (Catalepsy in rats (CATR)) | CATR score at max dose (catalepsy; rat, in vivo, 14 mg/kg) | CATR score at max dose (catalepsy; at 56 mg/kg, theoretical maximum score 6, 60 and 120 minutes) | ED50 [1, 2] | ED50 [1, 3] | CATR score at max dose (catalepsy; at 75 mg/kg, theoretical maximum score 6, 60 and 120 minutes)
1 | CN(C)CCCN1c2ccccc2Sc2ccc(Cl)cc21 [chlorpromazine, reference compound] | 4.8 mg/kg | 5.3 |  |  |  | 
2 | CN1CCC(=C(c2ccc(F)cc2)c2cc(Cl)cs2)CC1 [Example 2, 1-methyl-4-[(4-chloro-2-thienyl)-(4-fluorophenyl)]-methylene-piperidine] | > 50 mg/kg |  | 0.2 | 5 mg/kg | 0.6 mg/kg | 
3 | CN1CCC(=C(c2ccc(F)cc2)c2cccs2)CC1 [Compound A, 1-methyl-4-[(2-thienyl)-(4-fluorophenyl)]methylenepiperidine, reference compound] |  |  |  | 100 mg/kg | 2.8 mg/kg | 
4 | Cc1csc(C(=C2CCN(C)CC2)c2ccc(F)cc2)c1 [Example 3, 1-methyl-4-[(4-methyl-2-thienyl)-(4-fluoropheny)]methylene-piperidine] | > 75 mg/kg |  |  | 8.6 mg/kg | 1.5 mg/kg | 0.2
5 | CN1CCC(=C(c2ccccc2)c2cccs2)CC1 [Compound B, 1-methyl-4-(2-thienyl)-phenyl-methylenepiperidine, reference compound] |  |  |  |  | 22 mg/kg | 
6 | CN1CCC(=C(c2ccccc2)c2ccc(Cl)s2)CC1 [Compound C, 1-methyl-4-[(-5-chloro-2-thienyl)-phenyl]methylenepiperidine, reference compound] |  |  |  |  | 22 mg/kg | 
